The assay has as its target Bet BRD4 full length bromo-domain protein (Homo sapiens, UniProt O60885). The assay is described as follows: Bet bromodomain TR-FRET assay (displacement of acetyl histone peptide). Format: binding. The note with it: Bet BRD4 full length bromodomain protein, 300 nM acetyl histone peptide substrate, read-out: IC50.

Structures are written as SMILES. Counter-ions that a name gives are not always drawn.

Turning to `O=C(Nc1cc(NS(=O)(=O)c2ccc(F)cc2F)cc2c1NC(=O)C21CCC1)c1cccnc1` [Compound 44, N-(5′-(2,4-Difluorophenylsulfonamido)-2′-oxospiro[cyclobutane-1,3′-indolin]-7′-yl)nicotinamide], the IC50 is above 1000 nM. Regarding `O=C(Nc1cc(NS(=O)(=O)c2ccc(F)cc2F)cc2c1NC(=O)C21CCC1)c1ccncc1` [Compound 45, N-(5′-(2,4-Difluorophenylsulfonamido)-2′-oxospiro[cyclobutane-1,3′-indolin]-7′-yl)isonicotinamide], the IC50 is above 1000 nM. For the compound `O=C(Nc1cc(NS(=O)(=O)c2ccc(F)cc2F)cc2c1NC(=O)C21CCC1)C1CCOCC1` [Compound 46, N-(5′-(2,4-Difluorophenylsulfonamido)-2′-oxospiro[cyclobutane-1,3′-indolin]-7′-yl)tetrahydro-2H-pyran-4-carboxamide], the IC50 is above 1000 nM. Take `CN1CCN(C(=O)c2cc(NS(=O)(=O)c3ccc(F)cc3F)cc3c2NC(=O)C32CCC2)CC1` [Compound 47, 2,4-Difluoro-N-(7′-(4-methylpiperazine-1-carbonyl)-2′-oxospiro[cyclobutane-1,3′-indolin]-5′-yl)benzenesulfonamide]: the IC50 is above 1000 nM. On to `O=C(c1cc(NS(=O)(=O)c2ccc(F)cc2F)cc2c1NC(=O)C21CCC1)N1CCOCC1` [Compound 48, 2,4-Difluoro-N-(7′-(morpholine-4-carbonyl)-2′-oxospiro [cyclobutane-1,3′-indolin]-5′-yl)benzenesulfonamide], for which the concentration for half-maximal inhibition (IC50) is above 1000 nM.

In the case of `O=C(Nc1ccccn1)c1cc(NS(=O)(=O)c2ccc(F)cc2F)cc2c1NC(=O)C21CCC1` [Compound 49, 5′-(2,4-Difluorophenylsulfonamido)-2′-oxo-N-(pyridin-2-yl)spiro[cyclobutane-1,3′-indoline]-7′-carboxamide], the IC50 lay in the range of 600 to 1000 nM. `O=C(NC1CCOCC1)c1cc(NS(=O)(=O)c2ccc(F)cc2F)cc2c1NC(=O)C21CCC1` [Compound 50, 5′-(2,4-Difluorophenylsulfonamido)-2′-oxo-N-(tetrahydro-2H-pyran-4-yl)spiro[cyclobutane-1,3′-indoline]-7′-carboxamide]: the IC50 is below 600 nM. The figure for `O=C(Nc1cccnc1)c1cc(NS(=O)(=O)c2ccc(F)cc2F)cc2c1NC(=O)C21CCC1` [Compound 51, 5′-(2,4-Difluorophenylsulfonamido)-2′-oxo-N-(pyridin-3-yl)spiro[cyclobutane-1,3′-indoline]-7′-carboxamide] is 600 to 1000 nM. On to `CN1CCC(NC(=O)c2cc(NS(=O)(=O)c3ccc(F)cc3F)cc3c2NC(=O)C32CCC2)C1` (centres unmarked) [Compound 52, 5′-(2,4-Difluorophenylsulfonamido)-N-(1-methylpyrrolidin-3-yl)-2′-oxospiro[cyclobutane-1,3′-indoline]-7′-carboxamide], for which the half-inhibitory concentration (IC50) was below 600 nM. As to `CN1CCC(N(C)C(=O)c2cc(NS(=O)(=O)c3ccc(F)cc3F)cc3c2NC(=O)C32CCC2)CC1` [Compound 53, 5′-(2,4-Difluorophenylsulfonamido)-N-methyl-N-(1-methylpiperidin-4-yl)-2′-oxospiro[cyclobutane-1,3′-indoline]-7′-carboxamide], the IC50 is above 1000 nM. Consider `CCN1CCC(NC(=O)c2cc(NS(=O)(=O)c3ccc(F)cc3F)cc3c2NC(=O)C32CCC2)CC1` [Compound 54, 5′-(2,4-Difluorophenylsulfonamido)-N-(1-ethylpiperidin-4-yl)-2′-oxospiro[cyclobutane-1,3′-indoline]-7′-carboxamide], for which the IC50 is below 600 nM. For `O=C(NC1CCCCC1)c1cc(NS(=O)(=O)c2ccc(F)cc2F)cc2c1NC(=O)C21CCC1` [Compound 55, N-cyclohexyl-5′-(2,4-difluorophenylsulfonamido)-2′-oxospiro[cyclobutane-1,3′-indoline]-7′-carboxamide], the IC50 lay within 600 to 1000 nM. In the case of `CN1CCC(NC(=O)c2cc(NS(=O)(=O)c3ccc(F)cc3F)cc3c2NC(=O)C32CCC2)CC1` [Compound 56, 5′-(2,4-Difluorophenylsulfonamido)-N-(1-methylpiperidin-4-yl)-2′-oxospiro[cyclobutane-1,3′-indoline]-7′-carboxamide], the concentration for half-maximal inhibition (IC50) is below 600 nM. On to `O=C(Nc1ccncc1)c1cc(NS(=O)(=O)c2ccc(F)cc2F)cc2c1NC(=O)C21CCC1` [Compound 57, 5′-(2,4-Difluorophenylsulfonamido)-2′-oxo-N-(pyridin-4-yl)spiro[cyclobutane-1,3′-indoline]-7′-carboxamide], for which the IC50 is below 600 nM. `CN1CCCC(NC(=O)c2cc(NS(=O)(=O)c3ccc(F)cc3F)cc3c2NC(=O)C32CCC2)C1` (centres unmarked) [Compound 58, 5′-(2,4-Difluorophenylsulfonamido)-N-(1-methylpiperidin-3-yl)-2′-oxospiro[cyclobutane-1,3′-indoline]-7′-carboxamide]: the IC50 was below 600 nM. Take `CC(C)(O)C1CCN(C(=O)c2cc(NS(=O)(=O)c3ccc(F)cc3F)cc3c2NC(=O)C32CCC2)CC1` [Compound 59, 2,4-Difluoro-N-(7′-(4-(2-hydroxypropan-2-yl)piperidine-1-carbonyl)-2′-oxospiro[cyclobutane-1,3′-indolin]-5′-yl)benzenesulfonamide]: the IC50 was above 1000 nM. `COc1ccccc1S(=O)(=O)Nc1cc(C(=O)NC2CCN(C)CC2)c2c(c1)C1(CCC1)C(=O)N2` [Compound 60, 5′-(2-Methoxyphenylsulfonamido)-N-(1-methylpiperidin-4-yl)-2′-oxospiro[cyclobutane-1,3′-indoline]-7′-carboxamide]: the IC50 is below 600 nM. Take `O=C(c1cc(NS(=O)(=O)c2ccc(F)cc2N2CCOCC2)cc2c1NC(=O)C21CCC1)N1CCOCC1` [Compound 61, 4-Fluoro-N-(7′-(morpholine-4-carbonyl)-2′-oxospiro[cyclobutane-1,3′-indolin]-5′-yl)-2-morpholinobenzenesulfonamide]: the IC50 is above 1000 nM. Turning to `O=C1Nc2c(Nc3ccncc3)cc(NS(=O)(=O)c3ccc(F)cc3F)cc2C12CCC2` [Compound 62, 2,4-Difluoro-N-(2′-oxo-7′-(pyridin-4-ylamino)spiro[cyclobutane-1,3′-indolin]-5′-yl)benzenesulfonamide], the IC50 was above 1000 nM. In the case of `CC(=O)Nc1cc(NS(=O)(=O)c2ccc(F)cc2F)cc2c1NC(=O)C21CCC1` [Compound 63, N-(5′-((2,4-difluorophenyl)sulfonamido)-2′-oxospiro[cyclobutane-1,3′-indolin]-7′-yl)acetamide], the IC50 is 600 to 1000 nM. Turning to `COc1ccccc1S(=O)(=O)Nc1cc(C(=O)NC2CCNCC2)c2c(c1)C1(CCC1)C(=O)N2` [Compound 64, 5′-((2-methoxyphenyl)sulfonamido)-2′-oxo-N-(piperidin-4-yl)spiro[cyclobutane-1,3′-indoline]-7′-carboxamide], the IC50 was below 600 nM. Consider `O=C(NC1CCCNC1)c1cc(NS(=O)(=O)c2ccc(F)cc2F)cc2c1NC(=O)C21CCC1` (centres unmarked) [Compound 65, 5′-(2,4-Difluorophenylsulfonamido)-2′-oxo-N-(piperidin-3-yl)spiro[cyclobutane-1,3′-indoline]-7′-carboxamide], for which the IC50 is below 600 nM. On to `O=C(NC1CCNCC1)c1cc(NS(=O)(=O)c2ccc(F)cc2F)cc2c1NC(=O)C21CCC1` [Compound 66, 5′-(2,4-Difluorophenylsulfonamido)-2′-oxo-N-(piperidin-4-yl)spiro[cyclobutane-1,3′-indoline]-7′-carboxamide], for which the IC50 was below 600 nM. Turning to `O=C1Nc2c(CO)cc(NS(=O)(=O)c3ccc(F)cc3F)cc2C12CCC2` [Compound 69, 2,4-Difluoro-N-(7′-(hydroxymethyl)-2′-oxospiro[cyclobutane-1,3′-indolin]-5′-yl)benzenesulfonamide], the IC50 is below 600 nM. For `CCN1CCCC(Nc2cc(NS(=O)(=O)c3ccc(F)cc3F)cc3c2NC(=O)C32CCC2)C1` (centres unmarked) [Compound 70, N-(7′-((1-ethylpiperidin-3-yl)amino)-2′-oxospiro[cyclobutane-1,3′-indolin]-5′-yl)-2,4-difluorobenzenesulfonamide], the IC50 is below 600 nM. The same measure for `O=C1Nc2c(NC3CCCNC3)cc(NS(=O)(=O)c3ccc(F)cc3F)cc2C12CCC2` (centres unmarked) [Compound 71, 2,4-Difluoro-N-(2′-oxo-7′-(piperidin-3-ylamino)spiro[cyclobutane-1,3′-indolin]-5′-yl)benzenesulfonamide hydrochloride]: below 600 nM; for `CN1CCC(NC(=O)c2cc(N(C)S(=O)(=O)c3ccc(F)cc3F)cc3c2NC(=O)C32CCC2)CC1` [Compound 72, 5′-((2,4-Difluoro-N-methylphenyl)sulfonamido)-N-(1-methylpiperidin-4-yl)-2′-oxospiro[cyclobutane-1,3′-indoline]-7′-carboxamide]: above 1000 nM. On to `CN1CCC(NC(=O)c2cc(NS(=O)(=O)c3ccccc3F)cc3c2NC(=O)C32CCC2)CC1` [Compound 73, 5′-(2-Fluorophenylsulfonamido)-N-(1-methylpiperidin-4-yl)-2′-oxospiro[cyclobutane-1,3′-indoline]-7′-carboxamide], for which the IC50 is below 600 nM. Turning to `CN1CCC(NC(=O)c2cc(NS(=O)(=O)c3ccc(Br)cc3F)cc3c2NC(=O)C32CCC2)CC1` [Compound 74, 5′-((4-Bromo-2-fluorophenyl)sulfonamido)-N-(1-methylpiperidin-4-yl)-2′-oxospiro[cyclobutane-1,3′-indoline]-7′-carboxamide], the IC50 is below 600 nM. On to `CN1CCC(NC(=O)c2cc(NC(=O)c3ccc(F)cc3F)cc3c2NC(=O)C32CCC2)CC1` [Compound 75, 5′-(2,4-Difluorobenzamido)-N-(1-methylpiperidin-4-yl)-2′-oxospiro[cyclobutane-1,3′-indoline]-7′-carboxamide], for which the IC50 is above 1000 nM. The figure for `O=C(Nc1cc(C2CC2)c2c(c1)C1(CCC1)C(=O)N2)c1ccc(F)cc1` [Compound 75a, N-(7′-Cyclopropyl-2′-oxospiro[cyclobutane-1,3′-indolin]-5′-yl)-4-fluorobenzamide] is 600 to 1000 nM; for `O=C1C=C(Nc2cc(NS(=O)(=O)c3ccc(F)cc3F)cc3c2NC(=O)C32CCC2)CCN1` [Compound 76, 2,4-Difluoro-N-(2′-oxo-7′-((6-oxo-1,2,3 ,6-tetrahydropyridin-4-yl)-amino)spiro[cyclobutane-1,3′-indolin]-5′-yl)benzenesulfonamide] it is below 600 nM.

The record behind these values is patent US10336697B2, “Spiro[cyclobutane-1,3′-indolin]-2′-one derivatives as bromodomain inhibitors” (Orion Corporation, priority 2015, dated 2019).
